In patent publication US4966900A, “Cephalosporin β-lactam compound and medicinal composition” (priority 1986, dated 1990):
Converted amounts (≈) assume the structure as drawn. Counter-ions that a name gives are not always drawn.

Legend:
Assay in all cases: MIC
[1] = tested on: S. marcescens GN10857; conditions: Serratia marcescens, GN10857, S. marcescens GN10857; Table 5
[2] = tested on: E. cloacae 908RN; conditions: Enterobacter cloacae
[3] = tested on: C. freundii 1U589; conditions: Citrobacter freundii, 1U589
[4] = tested on: P. cepacia OF189; conditions: Burkholderia cepacia, OF189, P. cepacia OF189; Table 5
[5] = tested on: E. cloacae 5D63-2; conditions: Enterobacter cloacae, 5D632
[6] = tested on: P. aeruginosa 5D58-1; conditions: Pseudomonas aeruginosa, 5D581, P. aeruginosa 5D58-1; Table 5
[7] = tested on: C. freundii 1R523; conditions: Citrobacter freundii, 1R523
[8] = tested on: E. cloacae 5D52-2; conditions: Enterobacter cloacae, 5D522
[9] = tested on: C. freundii GN7391; conditions: Citrobacter freundii, GN7391, C. freundii GN7391
[10] = tested on: C. freundii 1U692; conditions: Citrobacter freundii, 1U692
[11] = tested on: P. aeruginosa 4au542; conditions: Pseudomonas aeruginosa, 4AU542, P. aeruginosa 4au542; Table 5
[12] = tested on: C. freundii 1R527; conditions: Citrobacter freundii, 1R527
[13] = tested on: C. freundii 1R524; conditions: Citrobacter freundii, 1R524
[14] = tested on: C. freundii 5D60-1; conditions: Citrobacter freundii, 5D601
[15] = tested on: E. coli GN5482; conditions: Escherichia coli, GN5482, E. coli GN5482; Table 5
[16] = tested on: E. coli ML4707; conditions: Escherichia coli, ML4707, E. coli ML4707; Table 5
[17] = tested on: C. freundii 1R526; conditions: Citrobacter freundii, 1R526
[18] = tested on: S. aureus Smith; conditions: Staphylococcus aureus, Table 5
[19] = tested on: K. pneumoniae 4at521; conditions: Klebsiella pneumoniae, 4AT521
[20] = tested on: P. maltophilia OF247; conditions: Stenotrophomonas maltophilia, Table 5
[21] = tested on: S. aureus IAA498; type: cell-based; conditions: Staphylococcus aureus, Table 5
Method: (§1) The minimum inhibition concentrations (MIC) of the compounds obtained in the respective examples described above were measured according to the standard method of Japanese Chemotherapy Association.

[22] = tested on: E. cloacae 1Y247; type: cell-based; conditions: Enterobacter cloacae, Table 6, read-out: MIC
Method: as §1

[23] = tested on: P. vulgaris GN7919; conditions: Proteus vulgaris, GN7919
[24] = tested on: E. cloacae 1V25; conditions: Enterobacter cloacae
[25] = tested on: P. aeruginosa GN10362; conditions: Pseudomonas aeruginosa, GN10362
[26] = tested on: E. colacae GN7471; conditions: Table 5

## Cc1nc2nc(C(=O)O)cc(SCC3=C(C(=O)O)N4C(=O)C(NC(=O)C(=NOC(C)(C)C(=O)NNC(=O)c5ccc(O)c(O)c5)c5csc(N)n5)C4SC3)n2n1 (stereo not drawn) [Example 37]
[1]
  MIC: 0.2 µg/mL (≈ 0.242 µM)
[2]; E. cloacae 908RN, Table 6
  MIC: 0.78 µg/mL (≈ 0.942 µM)
[2]; E. colacae 908RN, Table 5
  MIC: 0.78 µg/mL (≈ 0.942 µM)
[3]
  MIC: 0.2 µg/mL (≈ 0.242 µM)
[4]
  MIC: < 0.006 µg/mL
[5]
  MIC: 0.2 µg/mL (≈ 0.242 µM)
[6]
  MIC: 0.78 µg/mL (≈ 0.942 µM)
[7]
  MIC: 0.1 µg/mL (≈ 0.121 µM)
[8]
  MIC: 0.1 µg/mL (≈ 0.121 µM)
[9]; Table 5
  MIC: 1.56 µg/mL (≈ 1.88 µM)
[9]; Table 6
  MIC: 3.13 µg/mL (≈ 3.78 µM)
[10]
  MIC: 0.2 µg/mL (≈ 0.242 µM)
[11]
  MIC: 0.2 µg/mL (≈ 0.242 µM)
[12]
  MIC: 0.1 µg/mL (≈ 0.121 µM)
[13]
  MIC: 0.1 µg/mL (≈ 0.121 µM)
[14]
  MIC: 0.39 µg/mL (≈ 0.471 µM)
[15]
  MIC: 0.012 µg/mL (≈ 0.0145 µM)
[16]
  MIC: 0.012 µg/mL (≈ 0.0145 µM)
[17]
  MIC: 0.1 µg/mL (≈ 0.121 µM)
[18]
  MIC: 25 µg/mL (≈ 30.2 µM)
[19]
  MIC: < 0.006 µg/mL
[20]
  MIC: 0.39 µg/mL (≈ 0.471 µM)
[21]
  MIC: 25 µg/mL (≈ 30.2 µM)
[22]
  MIC: 3.13 µg/mL (≈ 3.78 µM)
[23]
  MIC: 0.78 µg/mL (≈ 0.942 µM)
[24]
  MIC: 6.25 µg/mL (≈ 7.55 µM)
[25]
  MIC: 0.05 µg/mL (≈ 0.0604 µM)
[26]
  MIC: 0.78 µg/mL (≈ 0.942 µM)

## Cc1nc2ncnn2c(SCC2=C(C(=O)O)N3C(=O)C(NC(=O)C(=NOC(C)(C)C(=O)NNC(=O)c4ccc(O)c(O)c4)c4csc(N)n4)C3SC2)c1C (stereo not drawn) [Example 39]
[1]
  MIC: 0.2 µg/mL (≈ 0.251 µM)
[2]; E. cloacae 908RN, Table 6
  MIC: 3.13 µg/mL (≈ 3.92 µM)
[2]; E. colacae 908RN, Table 5
  MIC: 1.56 µg/mL (≈ 1.96 µM)
[3]
  MIC: 0.39 µg/mL (≈ 0.489 µM)
[4]
  MIC: < 0.006 µg/mL
[5]
  MIC: 0.2 µg/mL (≈ 0.251 µM)
[6]
  MIC: 0.78 µg/mL (≈ 0.978 µM)
[7]
  MIC: 0.1 µg/mL (≈ 0.125 µM)
[8]
  MIC: 0.39 µg/mL (≈ 0.489 µM)
[9]; Table 5
  MIC: 3.13 µg/mL (≈ 3.92 µM)
[9]; Table 6
  MIC: 3.13 µg/mL (≈ 3.92 µM)
[10]
  MIC: 0.39 µg/mL (≈ 0.489 µM)
[11]
  MIC: 0.39 µg/mL (≈ 0.489 µM)
[12]
  MIC: 0.1 µg/mL (≈ 0.125 µM)
[13]
  MIC: 0.1 µg/mL (≈ 0.125 µM)
[14]
  MIC: 0.39 µg/mL (≈ 0.489 µM)
[15]
  MIC: < 0.006 µg/mL
[16]
  MIC: < 0.006 µg/mL
[17]
  MIC: 0.1 µg/mL (≈ 0.125 µM)
[18]
  MIC: 12.5 µg/mL (≈ 15.7 µM)
[19]
  MIC: 0.012 µg/mL (≈ 0.015 µM)
[20]
  MIC: 0.2 µg/mL (≈ 0.251 µM)
[21]
  MIC: 12.5 µg/mL (≈ 15.7 µM)
[22]
  MIC: 1.56 µg/mL (≈ 1.96 µM)
[23]
  MIC: 0.78 µg/mL (≈ 0.978 µM)
[24]
  MIC: 12.5 µg/mL (≈ 15.7 µM)
[25]
  MIC: 0.2 µg/mL (≈ 0.251 µM)
[26]
  MIC: 1.56 µg/mL (≈ 1.96 µM)

## Cc1nc2nc(C(=O)O)nn2c(SCC2=C(C(=O)O)N3C(=O)C(NC(=O)C(=NOC(C)(C)C(=O)NNC(=O)c4ccc(O)c(O)c4)c4csc(N)n4)C3SC2)c1C (stereo not drawn) [Example 41, 7-{2-[2-Amino-1,3-thiazol 4-yl]-2-[1-(3-(3,4-dihydroxybenzoyl)carbazoyl)-1-methylethoxyimino]acetamide}-3-[(2-carboxy-5,6-dimethyl-s-triazolo[1,5-a]pyrimidin-7-yl)-thiomethyl]-3-cephem-4-carboxylic acid.hydrochloride]
[1]
  MIC: 0.1 µg/mL
[2]; E. cloacae 908RN, Table 6
  MIC: 0.2 µg/mL
[2]; E. colacae 908RN, Table 5
  MIC: 0.2 µg/mL
[3]
  MIC: 0.05 µg/mL
[4]
  MIC: < 0.006 µg/mL
[5]
  MIC: 0.1 µg/mL
[6]
  MIC: 0.39 µg/mL
[7]
  MIC: 0.025 µg/mL
[8]
  MIC: 0.05 µg/mL
[9]; Table 5
  MIC: 0.39 µg/mL
[9]; Table 6
  MIC: 0.39 µg/mL
[10]
  MIC: 0.05 µg/mL
[11]
  MIC: 0.2 µg/mL
[12]
  MIC: 0.012 µg/mL
[13]
  MIC: 0.006 µg/mL
[14]
  MIC: 0.1 µg/mL
[15]
  MIC: < 0.006 µg/mL
[16]
  MIC: < 0.006 µg/mL
[17]
  MIC: 0.025 µg/mL
[18]
  MIC: 25 µg/mL
[19]
  MIC: < 0.006 µg/mL
[20]
  MIC: 0.1 µg/mL
[21]
  MIC: 50 µg/mL
[22]
  MIC: 0.39 µg/mL
[23]
  MIC: 0.39 µg/mL
[24]
  MIC: 1.56 µg/mL
[25]
  MIC: 0.1 µg/mL
[26]
  MIC: 0.39 µg/mL
